Reference: patent US8481544B2, “Antibacterial compositions” (Biota Europe Limited, priority 2006, dated 2013)
≈ marks a conversion by molar mass, not a printed value.

System: Enterococcus faecalis ATCC 29212
Assay: MIC against Enterococcus faecalis ATCC 29212
Format: cell-based
Conditions: ATCC29212; Enterococcus faecalis ATCC 29212; read-out: MICs against Enterococcus faecalis, Activity
Description: Institute. Methods for Dilution Antimicrobial Susceptibility Tests for Bacteria That Grow Aerobically; Approved Standard—Seventh Edition. Document M7-A7. CLSI, Wayne, Pa., 2006; Clinical Laboratories and Standards Institute. Methods for Antimicrobial Susceptibility Testing of Anaerobic Bacteria; Approved Standard—Sixth Edition. Document M11-A6. CLSI, Wayne, Pa., 2004).
Compounds of this invention were tested for antimicrobial activity by susceptibility testing in liquid or on solid media. MICs for compounds against each strain were determined by the broth microdilution or agar dilution method according to the guidelines of the Clinical Laboratories and Standards Institute, formerly the National Committee for Clinical Laboratory Standards (Clinical Laboratories and Standards Institute. Methods for Dilution Antimicrobial Susceptibility Tests for Bacteria That Grow Aerobically; Approved Standard—Seventh Edition. Document M7-A7. CLSI, Wayne, Pa., 2006; Clinical Laboratories and Standards Institute. Methods for Antimicrobial Susceptibility Testing of Anaerobic Bacteria; Approved Standard—Sixth Edition. Document M11-A6. CLSI, Wayne, Pa., 2004).

Structure (SMILES)	MIC [µg/mL]
CCNC(=O)Nc1nc2cc(-c3cccnc3)cc(-c3ccccc3)c2s1 [Example 78, 1-Ethyl-3-(7-phenyl-5-pyridin-3-yl-benzothiazol-2-yl)-urea]	0.25 to 1 (≈ 0.668 to 2.67 µM)
CCNC(=O)Nc1nc2cc(-c3cnc4c(c3)CCC(=O)N4)cc(-c3ccccn3)c2s1 [Example 71, 1-Ethyl-3-[5-(7-oxo-5,6,7,8-tetrahydro-[1,8]naphthyridin-3-yl)-7-pyridin-2-yl-benzothiazol-2-yl]-urea]	< 0.25
CCNC(=O)Nc1nc2cc(-c3ccn(CCO)c(=O)c3)cc(-c3ccccn3)c2s1 [Example 57, 1-Ethyl-3-{5-[1-(2-hydroxy-ethyl)-2-oxo-1,2-dihydro-pyridin-4-yl]-7-pyridin-2-yl-benzothiazol-2-yl}-urea]	0.25 to 1 (≈ 0.574 to 2.3 µM)
CCNC(=O)Nc1nc2cc(-c3ccccn3)cc(-c3cccnc3)c2s1 [Example 155, 1-Ethyl-3-(5-pyridin-2-yl-7-pyridin-3-yl-benzothiazol-2-yl)-urea]	2 to 16 (≈ 5.33 to 42.6 µM)
CCNC(=O)Nc1nc2cc(-c3ccc(CNC)nc3)cc(-c3ccccn3)c2s1 [Example 67, 1-Ethyl-3-[5-(6-methylaminomethyl-pyridin-3-yl)-7-pyridin-2-yl-benzothiazol-2-yl]-urea]	0.25 to 1 (≈ 0.597 to 2.39 µM)
CCNC(=O)Nc1nc2cc(-c3ccc(CN4CCOCC4)cc3)cc(-c3cccnc3)c2s1 [Example 21, 1-Ethyl-3-[5-(4-morpholin-4-ylmethyl-phenyl)-7-pyridin-3-yl-benzothiazol-2-yl]-urea]	2 to 16 (≈ 4.22 to 33.8 µM)
CCNC(=O)Nc1nc2cc(-c3cccnc3)cc(-c3cnc(N)cn3)c2s1 [Example 131, 1-[7-(5-Amino-pyrazin-2-yl)-5-pyridin-3-yl-benzothiazol-2-yl]-3-ethyl-urea]	< 0.25
CCNC(=O)Nc1nc2cc(-c3ccc(NC(C)=O)nc3)cc(-c3ccccn3)c2s1 [Example 133, N-{5-[2-(3-Ethyl-ureido)-7-pyridin-2-yl-benzothiazol-5-yl]-pyridin-2-yl}-acetamide]	< 0.25
CCNC(=O)Nc1nc2cc(-c3cccnc3)cc(-c3cc(OC)ncn3)c2s1 [Example 122, 1-Ethyl-3-[7-(6-methoxy-pyrimidin-4-yl)-5-pyridin-3-yl-benzothiazol-2-yl]-urea]	< 0.25
CCNC(=O)Nc1nc2cc(-c3cccnc3)cc(-c3nccc4cc[nH]c34)c2s1 [Example 115, 1-Ethyl-3-[5-pyridin-3-yl-7-(1H-pyrrolo[2,3-c]pyridin-7-yl)-benzothiazol-2-yl]-urea]	< 0.25
CCNC(=O)Nc1nc2cc(-c3ccc(CC(=O)OC)nc3)cc(-c3ccccn3)c2s1 [Example 69, {5-[2-(3-Ethyl-ureido)-7-pyridin-2-yl-benzothiazol-5-yl]-pyridin-2-yl}-acetic acid methyl ester]	< 0.25
CCNC(=O)Nc1nc2cc(-n3ccnc3)cc(-c3ccccn3)c2s1 [Example 142, 1-Ethyl-3-(5-imidazol-1-yl-7-pyridin-2-yl-benzothiazol-2-yl)-urea]	< 0.25
CCNC(=O)Nc1nc2cc(-c3cccnc3)cc(-c3cccc(OC)c3)c2s1 [Example 86, 1-Ethyl-3-[7-(3-methoxy-phenyl)-5-pyridin-3-yl-benzothiazol-2-yl]-urea]	0.25 to 1 (≈ 0.618 to 2.47 µM)
CCNC(=O)Nc1nc2cc(-c3cccnc3)cc(-c3ncccc3OC)c2s1 [Example 118, 1-Ethyl-3-[7-(3-methoxy-pyridin-2-yl)-5-pyridin-3-yl-benzothiazol-2-yl]-urea]	< 0.25
CCNC(=O)Nc1nc2cc(-c3cccnc3)cc(-c3cc(CO)ccn3)c2s1 [Example 121, 1-Ethyl-3-[7-(4-hydroxymethyl-pyridin-2-yl)-5-pyridin-3-yl-benzothiazol-2-yl]-urea]	< 0.25
CCNC(=O)Nc1nc2cc(-c3cccnc3)cc(-c3cc(N(C)C)ccn3)c2s1 [Example 169, 1-[7-(4-Dimethylamino-pyridin-2-yl)-5-pyridin-3-yl-benzothiazol-2-yl]-3-ethyl-urea]	0.25 to 1 (≈ 0.597 to 2.39 µM)
CCNC(=O)Nc1nc2cc(-c3cccnc3)cc(-c3cccc(N)n3)c2s1 [Example 125, 1-[7-(6-Amino-pyridin-2-yl)-5-pyridin-3-yl-benzothiazol-2-yl]-3-ethyl-urea]	< 0.25
CCNC(=O)Nc1nc2cc(-c3cccnc3)cc(-c3nc4ccccc4s3)c2s1 [Example 117, 1-Ethyl-3-(5′-pyridin-3-yl-[2,7′]bibenzothiazolyl-2′-yl)-urea]	< 0.25
CCNC(=O)Nc1nc2cc(-c3cccnc3)cc(-c3nccn3C)c2s1 [Example 162, 1-Ethyl-3-[7-(1-methyl-1H-imidazol-2-yl)-5-pyridin-3-yl-benzothiazol-2-yl]-urea]	2 to 16 (≈ 5.28 to 42.3 µM)
CCNC(=O)Nc1nc2cc(-c3cnccn3)cc(-c3cnccn3)c2s1 [Example 10, 1-(5,7-Di-pyrazin-2-yl-benzothiazol-2-yl)-3-ethyl-urea]	< 0.25

Structure (SMILES)	MIC [µg/mL]
CCNC(=O)Nc1nc2cc(-c3ccc(CN(CCOC)CCOC)nc3)cc(-c3ccccn3)c2s1 [Example 60, 1-[5-(6-{[Bis-(2-methoxy-ethyl)-amino]-methyl}-pyridin-3-yl)-7-pyridin-2-yl-benzothiazol-2-yl]-3-ethyl-urea]	0.25 to 1 (≈ 0.48 to 1.92 µM)
CCNC(=O)Nc1nc2cc(-c3cccnc3)cc(-c3ccc(OC)cc3)c2s1 [Example 84, 1-Ethyl-3-[7-(4-methoxy-phenyl)-5-pyridin-3-yl-benzothiazol-2-yl]-urea]	0.25 to 1 (≈ 0.618 to 2.47 µM)
CCNC(=O)Nc1nc2cc(-c3cncc(C#N)c3)cc(-c3cccnc3)c2s1 [Example 24, 1-[5-(5-Cyano-pyridin-3-yl)-7-pyridin-3-yl-benzothiazol-2-yl]-3-ethyl-urea]	0.25 to 1 (≈ 0.624 to 2.5 µM)
CCNC(=O)Nc1nc2cc(-c3cncc(N4CCN(C)CC4)c3)cc(-c3ccccn3)c2s1 [Example 62, 1-Ethyl-3-{5-[5-(4-methyl-piperazin-1-yl)-pyridin-3-yl]-7-pyridin-2-yl-benzothiazol-2-yl}-urea]	0.25 to 1 (≈ 0.528 to 2.11 µM)
CCNC(=O)Nc1nc2cc(-c3cccnc3)cc(-c3cncnc3)c2s1 [Example 159, 1-Ethyl-3-(5-pyridin-3-yl-7-pyrimidin-5-yl-benzothiazol-2-yl)-urea]	0.25 to 1 (≈ 0.664 to 2.66 µM)
CCNC(=O)Nc1nc2cc(-c3cccnc3)cc(-c3ncccn3)c2s1 [Example 93, 1-Ethyl-3-(5-pyridin-3-yl-7-pyrimidin-2-yl-benzothiazol-2-yl)-urea]	0.25 to 1 (≈ 0.664 to 2.66 µM)
CCNC(=O)Nc1nc2cc(Br)cc(-c3cccnc3)c2s1 [Example 2, 1-(5-Bromo-7-pyridin-3-yl-benzothiazol-2-yl)-3-ethyl-urea]	2 to 16 (≈ 5.3 to 42.4 µM)
CCNC(=O)Nc1nc2cc(-c3cnc(N)nc3)cc(-c3cnc(N)nc3)c2s1 [Example 145, 1-[5,7-Bis-(2-amino-pyrimidin-5-yl)-benzothiazol-2-yl]-3-ethyl-urea]	2 to 16 (≈ 4.91 to 39.3 µM)
CCNC(=O)Nc1nc2cc(-c3ccc(NC(=O)CNC(C)(C)C)nc3)cc(-c3ccccn3)c2s1 [Example 55, 2-tert-Butylamino-N-{5-[2-(3-ethyl-ureido)-7-pyridin-2-yl-benzothiazol-5-yl]-pyridin-2-yl}-acetamide]	0.25 to 1 (≈ 0.496 to 1.99 µM)
CCNC(=O)Nc1nc2cc(-c3cccnc3)cc(NC(=O)NCC)c2s1 [Example 150, 1-Ethyl-3-[2-(3-ethyl-ureido)-5-pyridin-3-yl-benzothiazol-7-yl]-urea]	2 to 16 (≈ 5.2 to 41.6 µM)
CCNC(=O)Nc1nc2cc(-c3cccnc3)cc(C3CC3)c2s1 [Example 79, 1-(7-Cyclopropyl-5-pyridin-3-yl-benzothiazol-2-yl)-3-ethyl-urea]	0.25 to 1 (≈ 0.739 to 2.95 µM)
CCNC(=O)Nc1nc2cc(-c3cnc(OC)nc3)cc(-c3cccnc3)c2s1 [Example 15, 1-Ethyl-3-[5-(2-methoxy-pyrimidin-5-yl)-7-pyridin-3-yl-benzothiazol-2-yl]-urea]	0.25 to 1 (≈ 0.615 to 2.46 µM)
CCNC(=O)Nc1nc2cc(-c3cccnc3)cc(-c3cccnc3F)c2s1 [Example 76, 1-Ethyl-3-[7-(2-fluoro-pyridin-3-yl)-5-pyridin-3-yl-benzothiazol-2-yl]-urea]	0.25 to 1 (≈ 0.635 to 2.54 µM)
CCNC(=O)Nc1nc2cc(-c3ccc(N)nc3)cc(-c3cccnc3)c2s1 [Example 17, 1-[5-(6-Amino-pyridin-3-yl)-7-pyridin-3-yl-benzothiazol-2-yl]-3-ethyl-urea]	0.25 to 1 (≈ 0.64 to 2.56 µM)
CCNC(=O)Nc1nc2cc(-c3cnc4c(c3)CNCC4)cc(-c3ccccn3)c2s1 [Example 65, 1-Ethyl-3-[7-pyridin-2-yl-5-(5,6,7,8-tetrahydro-[1,6]naphthyridin-3-yl)-benzothiazol-2-yl]-urea]	0.25 to 1 (≈ 0.581 to 2.32 µM)
CCNC(=O)Nc1nc2cc(-c3cncc(C(=O)NCCN4CCOCC4)c3)cc(-c3ccccn3)c2s1 [Example 68, 5-[2-(3-Ethyl-ureido)-7-pyridin-2-yl-benzothiazol-5-yl]-N-(2-morpholin-4-yl-ethyl)-nicotinamide]	0.25 to 1 (≈ 0.47 to 1.88 µM)
CCNC(=O)Nc1nc2cc(-c3cccnc3)cc(-c3cccc(CO)n3)c2s1 [Example 104, 1-Ethyl-3-[7-(6-hydroxymethyl-pyridin-2-yl)-5-pyridin-3-yl-benzothiazol-2-yl]-urea]	< 0.25
CCNC(=O)Nc1nc2cc(I)cc(-c3cccnc3)c2s1 [Example 8, 1-Ethyl-3-(5-iodo-7-pyridin-3-yl-benzothiazol-2-yl)-urea]	2 to 16 (≈ 4.71 to 37.7 µM)
CCNC(=O)Nc1nc2cc(-c3ccc(CO)nc3)cc(-c3ccccn3)c2s1 [Example 34, 1-Ethyl-3-[5-(6-hydroxymethyl-pyridin-3-yl)-7-pyridin-2-yl-benzothiazol-2-yl]-urea]	< 0.25
CCNC(=O)Nc1nc2cc(-c3cccnc3)cc(-c3cc(C(N)=O)ccn3)c2s1 [Example 108, 2-[2-(3-Ethyl-ureido)-5-pyridin-3-yl-benzothiazol-7-yl]-isonicotinamide]	0.25 to 1 (≈ 0.597 to 2.39 µM)
